According to patent US20220143006A1, “METHODS OF TREATING CANCER WITH FARNESYLTRANSFERASE INHIBITORS” (Kura Oncology, Inc., priority 2019, published 2022):
Entries after “also recorded” stand apart in the source; their conditions may differ.

How the values were obtained:
[1] = system: tumors in nude mice; conditions: cited from earlier work
[2] = system: Ras-dependent and -independent malignant tumors; conditions: cited from earlier work
[3] = system: PTCL, not otherwise specified (PTCL-NOS); assay: Phase 2 clinical study of tipifarnib in PTCL: objective response by KIR mutation status, PTCL-NOS patients; format: in vivo, human; conditions: FIG. 6, PTCL-NOS patients (N=9) with Q386E mutant of KIR3DL2
Procedure: (§1) This example describes an ongoing Phase 2 clinical study of tipifarnib with the primary objective being to assess the antitumor activity in terms of Overall Response Rate (ORR) of tipifarnib in approximately 18-30 eligible subjects eligible subjects with Peripheral T-Cell Lymphoma (PTCL) (ClinicalTRials.gov identifier: NCT02464228).
(§2) Subjects receive tipifarnib administered at a starting dose of 300 mg, orally with food, twice a day (bid) on Days 1-21 in 28 day cycles (i.e. 3 weeks on/1 week off). Stepwise 100 mg dose reductions to control treatment-related, treatment-emergent toxicities were also allowed. Subjects who received tipifarnib bid on days 1-7 and days 15-21 in 28 day cycles during the conduct of earlier versions of this protocol were permitted to remain on that dose regimen at the discretion of the investigator. Alternatively, the subject was permitted to transition to receive a dose of 300 mg, orally with food, bid on days 1-21 of 28 day treatment cycles beginning on Day 1 of their next cycle. In the absence of unmanageable toxicities, subjects may continue to receive tipifarnib treatment for up to 12 months in the absence of disease progression and unmanageable toxicity. Treatment was permitted to continue beyond 12 months upon agreement of the Investigator and Sponsor.
(§3) Tumor assessments are performed at screening, at the Day 22 visit (±5 days) performed during Cycles 2, 4, 6 and once every approximately 12 weeks (cycles 9, 12, 15, etc.) thereafter, until disease progression.
(§4) Determination of objective tumor response is performed based on the Lugano Classification (Cheson 2014, Appendix II: The Lugano Classification) and/or measurable cutaneous disease according to the modified Severity Weighted Assessment Tool (mSWAT, Olsen 2011, Appendix III: Modified Severity Weighted Assessment Tool).
Primary outcome measures: objective response rate (ORR) following treatment with tipfarnib. [Time Frame: 2 years]. Response assessments according to IWC and/or mSWAT. […]

[4] = system: angioimmunoblastic T-cell lymphoma (AITL); assay: Phase 2 clinical study of tipifarnib in PTCL: objective response by KIR mutation status, AITL patients; format: in vivo, human
Procedure: as §1, §2, §3, §4
(§5) Primary outcome measures: objective response rate (ORR) following treatment with tipfarnib. [Time Frame: 2 years]. Response assessments according to IWC and/or mSWAT.
(§6) This Phase II study investigates the antitumor activity in terms of ORR of tipifarnib in approximately 18-30 eligible subjects with relapsed or refractory PTCL. The first 18 subjects were permitted to have the following PTCL sub-types: PTCL, not otherwise specified (PTCL-NOS), angioimmunoblastic T-cell lymphoma (AITL), ALK-positive and -negative anaplastic large cell lymphoma (ALCL), hepatosplenic T-cell lymphoma, enteropathy-associate T-cell lymphoma (EATL), extranodal natural killer (NK) T-cell lymphoma, nasal type and subcutaneous panniculitis-like T-cell lymphoma. The AITL expansion cohort (N=12) enrolls only subjects with AITL. Only consented subjects who meet all eligibility criteria were enrolled in the study. Eligible subjects received tipifarnib administered at a starting dose of 300 mg, orally with food, twice a day (bid) on Days 1-21 in 28 day cycles (i.e. 3 weeks on/1 week off). Stepwise 100 mg dose reductions to control treatment-related, treatment-emergent toxicities were also allowed. Subjects who received tipifarnib bid on days 1-7 and days 15-21 in 28 day cycles during the conduct of earlier versions of this protocol were permitted to remain on that dose regimen at the discretion of the investigator. Alternatively, the subject was permitted to transition to receive a dose of 300 mg, orally with food, bid on days 1-21 of 28 day treatment cycles beginning on Day 1 of their next cycle. In the absence of unmanageable toxicities, subjects may continue to receive tipifarnib treatment for up to 12 months in the absence of disease progression and unmanageable toxicity. Treatment was permitted to continue beyond 12 months upon agreement of the Investigator and Sponsor.
(§7) A two-stage study design was used for the first 18 subjects in order to minimize the number of study subjects treated if tipifarnib were considered not sufficiently efficacious to grant further development in this subject population. […]

[5] = system: relapsed or refractory Peripheral T-Cell Lymphoma (PTCL); assay: Phase 2 clinical study of tipifarnib in PTCL (NCT02464228): objective response by KIR mutation status, PTCL-NOS and AITL patients together; format: in vivo, human
Procedure: as §1, §2, §3, §4, §5, §6, §7

[6] = system: unselected tumor populations (AML, MDS/CMML, urothelial cancer, breast cancer, PTCL/CTCL); conditions: single agent therapy, in man; cited from earlier work
[7] = AITL, KIR3DL2 C336R/Q386E mutant, N=8
[8] = FIG. 1, 9 AITL patients, carriers of D184N mutant of KIR2DL1
[9] = FIG. 2, 9 AITL patients, carriers of E295D mutant of KIR2DL3
[10] = FIG. 2, 9 AITL patients, carriers of R162T mutant of KIR2DL3
[11] = FIG. 3, 9 AITL patients, carriers of Q149K, Q149R, and I154M mutants of KIR2DL4
[12] = FIG. 5, 9 AITL patients, carriers of C336R and Q386E mutants of KIR3DL2
[13] = FIG. 6, AITL patients (N=5) with Q386E mutant of KIR3DL2
[14] = FIG. 7, subset of 10 AITL patients, carriers of C336R and Q386E mutants of KIR3DL2
[15] = FIG. 6, 14 patients with Q386E mutant of KIR3DL2 (PTCL-NOS N=9, AITL N=5)
[16] = FIG. 6, patients (N=13) with wild type (wt) KIR3DL2 at position 386

## CC[C@H](C)[C@@H](CO[C@@H](Cc1ccccc1)C(=O)N[C@@H](CCS(C)(=O)=O)C(=O)O)NC[C@@H](N)CS [L-739749, 2(S)-[2(S)-[2(R)-amino-3-mercapto]propylamino-3(S)-methyl]-pentyloxy-3-phenylpropionyl-methionine sulfone]
[1]; mouse, in vivo
  system toxicity: without system toxicity
[1]; nude mice
  antitumor activity: potent antitumor activity

## NC(=O)N1CCC(CC(=O)N2CCC([C@H]3c4ncc(Br)cc4CCc4cc(Cl)cc(Br)c43)CC2)CC1 [lonafarnib, (+)-(R)-4-[2-[4-(3,10-dibromo-8-chloro-5,6-dihydro-11H-benzo[5,6]cyclohepta[1,2-b]pyridin-11-yl)piperidin-1-yl]-2-oxoethyl]piperidine-1-carboxamide]
[2]
  activity in malignant tumors: active

## Cn1cncc1[C@@](N)(c1ccc(Cl)cc1)c1ccc2c(c1)c(-c1cccc(Cl)c1)cc(=O)n2C [tipifarnib, (B)-6-[amino(4-chlorophenyl)(1-methyl-1H-imidazol-5-yl)methyl]-4-(3-chlorophenyl)-1-methyl-2(1H)-quinolinone]
[3]
  ORR: 11%
  objective responses: number of CR: 1
  objective responses: number of progressive disease (PD): 8
[4]; AITL, KIR3DL2 C336R/Q386E mutant
  Clinical Benefit Rate (CR + PR + SD), patients/N: 8/8
[4]; [7]
  Clinical Benefit Rate (CR + PR + SD): 100%
  Overall Best Response: Complete Response (CR), number of patients: 4
  Overall Best Response: Partial Response (PR), number of patients: 2
  Overall Best Response: Stable Disease (SD), number of patients: 2
  Overall Response Rate (CR + PR): 75%
[4]; AITL, KIR3DL2 wild type
  Clinical Benefit Rate (CR + PR + SD), patients/N: 2/7
[4]; AITL, KIR3DL2 wild type, N=7
  Clinical Benefit Rate (CR + PR + SD): 29%
  Overall Best Response: Partial Response (PR), number of patients: 2
  Overall Best Response: Progressive Disease (PD), number of patients: 5
  Overall Response Rate (CR + PR): 29%
[4]; [8]
  objective responses: number of complete responses (CR): 2
  objective responses: number of partial responses (PR): 1
[4]; FIG. 1, 9 AITL patients, carriers of F202L mutant of KIR2DL1
  objective responses: number of complete responses (CR): 2
[4]; FIG. 1, 9 AITL patients, carriers of G179R mutant of KIR2DL1
  objective responses: number of complete responses (CR): 1
[4]; FIG. 1, 9 AITL patients, carriers of N178D mutant of KIR2DL1
  objective responses: number of partial responses (PR): 1
[4]; FIG. 1, 9 AITL patients, carriers of R197T mutant of KIR2DL1
  objective responses: number of complete responses (CR): 2
[4]; [9]
  objective responses: number of complete responses (CR): 1
  objective responses: number of partial responses (PR): 1
[4]; [10]
  objective responses: number of complete responses (CR): 2
  objective responses: number of partial responses (PR): 1
[4]; [11]
  objective responses: number of complete responses (CR): 2
  objective responses: number of partial responses (PR): 2
[4]; [12]
  objective responses: number of complete responses (CR): 2
  objective responses: number of partial responses (PR): 2
[4]; [13]
  ORR: 80%
  objective responses: number of complete responses (CR): 2
  objective responses: number of partial responses (PR): 2
[4]; [14]
  objective responses: number of complete responses (CR): 4
  objective responses: number of partial responses (PR): 2
[5]; [15]
  ORR: 36%
  objective responses: number of CRs: 3
  objective responses: number of PDs: 8
  objective responses: number of PRs: 2
  objective responses: number of SD: 1
[5]; [16]
  ORR: 8%
  objective responses: number of PD: 9
  objective responses: number of PR: 1
  objective responses: number of SD: 3
[6]
  safety and tolerability: manageable safety profile; also recorded: reasonably well tolerated in man
